Experiments:
5-LO [1] = experiment: Test g) zymosan-induced LTB4 liberation in air pouch of male rats; type: in vivo; settings: 3 h; test g), rat air pouch, oral
Protocol: g) An in vivo system involving measuring the effects of a test compound administered orally against the liberation of LTB4 induced by zymosan within an air pouch generated within the subcutaneous tissue of the back of male rats. The rats are anaesthetised and air pouches are formed by the injection of sterile air (20 ml). A further injection of air (10 ml) is similarly given after 3 days. At 6 days after the initial air injection the test compound is administered (usually orally as the suspension produced when a solution of the test compound in dimethylsulphoxide is added to hydroxypropylmethylcellulose), followed by the intrapouch injection of zymosan (1 ml of a 1% suspension in physiological saline). After 3 hours the rats are killed, the air pouches are lavaged with physiological saline, and the specific radioimmunoassay described above is used to assay LTB4 in the washings. This test provides an indication of inhibitory effects against 5-LO in an inflammatory milieu.

5-LO [2] = experiment: Test b) heparinised human blood, A23187 challenge, LTB4 radioimmunoassay; type: cell-based
Protocol: b) An in vitro assay system involving incubating a test compound with heparinised human blood, prior to challenge with the calcium ionophore A23187 and then indirectly measuring the inhibitory effects on 5-LO by assaying the amount of LTB4 using specific radioimmunoassays described by Carey and Forder (F. Carey and R. A. Forder, Prostaglandins Leukotrienes Med., 1986, 22, 57; Prostaglandins,1984, 28, 666; Brit. J. Pharmacol. 1985, 84, 34P) which involve the use of a protein-LTB4 conjugate produced using the procedure of Young et alia (Prostaglandins, 1983, 26(4), 605-613). The effects of a test compound on the enzyme cyclooxygenase (which is involved in the alternative metabolic pathway for arachidonic acid and gives rise to prostaglandins, thromboxanes and related metabolites) may be measured at the same time using the specific radioimmunoassay for thromboxane B2 (TxB2) described by Carey and Forder (see above). This test provides an indication of the effects of a test compound against 5-LO and also cyclooxygenase in the presence of blood cells and proteins. It permits the selectivity of the inhibitory effect on 5-LO or cyclooxygenase to be assessed.

IC50 (5-LO [2]) [µM]	Structure (SMILES)	ED50 (5-LO [1]) [mg/kg]
0.1	COC1(c2cc(F)cc(OCc3ccc4c(c3)CCC(=S)N4C)c2)CCOCC1 [4-[5-fluoro-3-(1-methyl-2-thioxo-1,2,3,4-tetrahydroquinolin-6-ylmethoxy)phenyl]-4-methoxytetrahydropyran]	1.5
0.05	COC1(c2cc(F)cc(Sc3ccc4c(c3)CCC(=S)N4C)c2)CCOCC1 [4-[5-fluoro-3-(1-methyl-2-thioxo-1,2,3,4-tetrahydroquinolin-6-ylthio)phenyl]-4-methoxytetrahydropyran]	0.5

Reference: patent US5240941A, “Thioxo quinoline compounds, composition and method of use” (ICI Pharma, priority 1990, dated 1993)
